Data set [1] has as its system CYPES: yellow nutsedge (Cyperus esculentus). As to the kind of experiment: Post-Emergent Test I herbicidal activity. It counts as in vivo. To be noted: post-emergence, 336 h, Table 3, 140 g ai/ha, read-out: Visual Growth Reduction (%)-14 Days after Application CYPES. Put shortly:
(§1)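 Greenhouse-grown seedlings (peat-based mix, pH 6.0–6.8; ~15 h photoperiod, 23–29 °C day) were sprayed post-emergence at first/second true-leaf stage with compound in acetone/DMSO/aqueous crop-oil–surfactant carrier at 187 L/ha, using a twofold rate series. Injury was scored visually after 14 d (0–100%); GR20/GR50/GR80 derived by probit analysis.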

For data set [2], the system named is ECHCG: barnyardgrass (Echinochloa crus-galli). As to the kind of experiment: Post-Emergent Test I herbicidal activity. It counts as in vivo. As to conditions: post-emergence, 336 h, Table 3, 140 g ai/ha, read-out: Visual Growth Reduction (%)-14 Days after Application ECHCG. An outline of the steps: (§2)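 Plants grown in greenhouse to first/second true leaf. Compound formulated in acetone:DMSO 97:3 then diluted into crop-oil/surfactant aqueous mix; serial twofold rates. Sprayed at 187 L/ha, 43 cm above canopy; solvent-blank controls. Scored visually at 14 d; probit fit for GR values.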

Data set [3] concerns EPHHL: wild poinsettia (Euphorbia heterophylla). The data set can be described thus: Post-Emergent Test I herbicidal activity. It is filed as in vivo. To be noted: post-emergence, 336 h, Table 3, 140 g ai/ha, read-out: Visual Growth Reduction (%)-14 Days after Application EPHHL. An outline of the steps: as §1
Data set [4] concerns CHEAL: lambsquarters (Chenopodium album). The data set can be described thus: Post-Emergent Test I herbicidal activity. It counts as in vivo. As to conditions: for pest or weed control at 140 g/ha: Table 3, 140 g ai/ha; for pest or weed control at 17.5 g/ha: Table 4, 17.5 g ai/ha; for pest or weed control at 35 g/ha: Table 4, 35 g ai/ha; for pest or weed control at 70 g/ha: Table 4, 70 g ai/ha; for Visual Growth Reduction (%)-14 Days after Application CHEAL: Table 4, 140 g ai/ha; for GR20 CHEAL: Table 4, growth reduction of 20% of plant growth; for GR20 CHEAL / GR50 CHEAL / GR80 CHEAL: 14 days after application, probit analysis; for GR50 CHEAL: Table 4, growth reduction of 50% of plant growth; for GR80 CHEAL: Table 4, growth reduction of 80% of plant growth. Put shortly: as §1

Data set [5] concerns ORYSA: rice (Oryza sativa). As to the kind of experiment: Post-Emergent Test I herbicidal activity. It is filed as in vivo. To be noted: post-emergence, 336 h, Table 3, 140 g ai/ha, read-out: Visual Growth Reduction (%)-14 Days after Application ORYSA. An outline of the steps:
as §2

For data set [6], the system named is ZEAMX: corn (Zea mays). The data set can be described thus: Post-Emergent Test I herbicidal activity. It is filed as in vivo. To be noted: for GR20 ZEAMX: Table 4, growth reduction of 20% of plant growth; for GR20 ZEAMX / GR50 ZEAMX / GR80 ZEAMX: 14 days after application, probit analysis; for GR50 ZEAMX: Table 4, growth reduction of 50% of plant growth; for GR80 ZEAMX: Table 4, growth reduction of 80% of plant growth; for pest or weed control at 17.5 g/ha: Table 4, 17.5 g ai/ha; for pest or weed control at 35 g/ha: Table 4, 35 g ai/ha; for pest or weed control at 70 g/ha: Table 4, 70 g ai/ha. Put shortly:
as §1

Data set [7] concerns ABUTH: velvetleaf (Abutilon theophrasti). The data set can be described thus: Post-Emergent Test I herbicidal activity. It counts as in vivo. As to conditions: for pest or weed control at 17.5 g/ha: Table 4, 17.5 g ai/ha; for pest or weed control at 35 g/ha: Table 4, 35 g ai/ha; for pest or weed control at 70 g/ha: Table 4, 70 g ai/ha; for GR20 ABUTH: Table 4, growth reduction of 20% of plant growth; for GR20 ABUTH / GR50 ABUTH / GR80 ABUTH: 14 days after application, probit analysis; for GR50 ABUTH: Table 4, growth reduction of 50% of plant growth; for GR80 ABUTH: Table 4, growth reduction of 80% of plant growth. Put shortly: as §1

The mark [8] stands for this setting: Chenopodium album, post-emergence, 336 h, read-out: Visual Growth Reduction (%)-14 Days after Application CHEAL.
The mark [9] stands for this setting: Zea mays, post-emergence, 336 h, Table 3, 140 g ai/ha, read-out: Visual Growth Reduction (%)-14 Days after Application ZEAMX.
[10] abbreviates: Abutilon theophrasti, post-emergence, 336 h, Table 3, 140 g ai/ha, read-out: Visual Growth Reduction (%)-14 Days after Application ABUTH.
The mark [11] stands for this setting: Zea mays, post-emergence, 336 h, read-out: Visual Growth Reduction (%)-14 Days after Application ZEAMX.
Setting [12] is: Zea mays, post-emergence, 336 h, Table 4, 140 g ai/ha, read-out: Visual Growth Reduction (%)-14 Days after Application ZEAMX.
[13] abbreviates: Abutilon theophrasti, post-emergence, 336 h, read-out: Visual Growth Reduction (%)-14 Days after Application ABUTH.
The mark [14] stands for this setting: Abutilon theophrasti, post-emergence, 336 h, Table 4, 140 g ai/ha, read-out: Visual Growth Reduction (%)-14 Days after Application ABUTH.

Read-outs that look alike come from different tables or passages of the source.

As to `COc1c(C(=O)OCc2ccccc2)nc(-c2ccc(Cl)c(OC)c2F)c(F)c1N` [Compound 66, benzyl 4-amino-6-(4-chloro-2-fluoro-3-methoxyphenyl)-5-fluoro-3-methoxypicolinate], the melting point worked out at 118 °C. Besides, the pest or weed control at 140 g/ha in data set [1] is 100%. Besides, the pest or weed control at 140 g/ha in data set [2] was 60%. Further, the pest or weed control at 140 g/ha in data set [3] was found to be 100%. In addition, the pest or weed control at 140 g/ha in data set [4] (setting [8]) stood at 100%. For the same compound, in data set [5], the pest or weed control at 140 g/ha was 0%. In data set [6] (setting [9]), the pest or weed control at 140 g/ha stood at 80%. The pest or weed control at 140 g/ha in data set [7] (setting [10]) came to 100%.
Consider `COC(=O)c1nc(-c2ccc(Cl)cc2F)cc(N)c1OC` [Compound 6, Methyl 4-amino-6-(4-chloro-2-fluorophenyl)-3-methoxypicolinate], for which the melting point lay in the range of 139 to 144 °C. Moreover, the pest or weed control at 140 g/ha in data set [1] turned out to be 20%. For the same compound, the pest or weed control at 140 g/ha in data set [2] was 0%. The pest or weed control at 140 g/ha in data set [3] turned out to be 100%. Also, in data set [4] (setting [8]), the pest or weed control at 140 g/ha was 100%, the pest or weed control at 17.5 g/ha stood at 100%, the pest or weed control at 35 g/ha was 100% and the pest or weed control at 70 g/ha worked out at 100%. The pest or weed control at 8.75 g/ha in data set [4] (Chenopodium album, post-emergence, 336 h, Table 4, 8.75 g ai/ha, read-out: Visual Growth Reduction (%)-14 Days after Application CHEAL) turned out to be 90%. Further, in data set [4], the “Visual Growth Reduction (%)-14 Days after Application CHEAL” value stood at 100%, the “GR20 CHEAL” value is given as below 8.75 g ai/ha, the “GR50 CHEAL” value is reported as below 8.75 g ai/ha and the “GR80 CHEAL” value is recorded as below 8.75 g ai/ha. Also, the pest or weed control at 140 g/ha in data set [5] worked out at 5%. Also, in data set [6], the “GR20 ZEAMX” value turned out to be 132 g ai/ha, the “GR50 ZEAMX” value is recorded as above 140 g ai/ha and the “GR80 ZEAMX” value was above 140 g ai/ha. Further, the pest or weed control at 140 g/ha in data set [6] (setting [9]) came out at 0%. Besides, the pest or weed control at 8.75 g/ha in data set [6] (Zea mays, post-emergence, 336 h, Table 4, 8.75 g ai/ha, read-out: Visual Growth Reduction (%)-14 Days after Application ZEAMX) is 0%. Further, in data set [6] (setting [11]), the pest or weed control at 17.5 g/ha came out at 0%, the pest or weed control at 35 g/ha is 0% and the pest or weed control at 70 g/ha stood at 10%. Besides, the pest or weed control at 140 g/ha in data set [6] (setting [12]) was found to be 20%. In addition, the pest or weed control at 140 g/ha in data set [7] (setting [10]) turned out to be 60%. Also, the pest or weed control at 8.75 g/ha in data set [7] (Abutilon theophrasti, post-emergence, 336 h, Table 4, 8.75 g ai/ha, read-out: Visual Growth Reduction (%)-14 Days after Application ABUTH) was found to be 50%. For the same compound, in data set [7] (setting [13]), the pest or weed control at 17.5 g/ha came out at 75%, the pest or weed control at 35 g/ha was determined as 80% and the pest or weed control at 70 g/ha was 85%. For the same compound, the pest or weed control at 140 g/ha in data set [7] (setting [14]) was determined as 85%. For the same compound, in data set [7], the “GR20 ABUTH” value is below 8.75 g ai/ha, the “GR50 ABUTH” value came out at 6.42 g ai/ha and the “GR80 ABUTH” value is reported as 38.1 g ai/ha.
Take `COc1c(N)cc(-c2ccc(Cl)cc2)nc1C(=O)O` [Compound 46]: the melting point stood at 165 °C. Moreover, the pest or weed control at 140 g/ha in data set [1] was determined as 0%. Besides, the pest or weed control at 140 g/ha in data set [2] is 15%. For the same compound, the pest or weed control at 140 g/ha in data set [3] amounted to 100%. In data set [4] (setting [8]), the pest or weed control at 140 g/ha is 100%, the pest or weed control at 17.5 g/ha was 90%, the pest or weed control at 35 g/ha worked out at 95% and the pest or weed control at 70 g/ha was 100%. Besides, the pest or weed control at 280 g/ha in data set [4] (Chenopodium album, post-emergence, 336 h, Table 4, 280 g ai/ha, read-out: Visual Growth Reduction (%)-14 Days after Application CHEAL) was determined as 100%. Moreover, in data set [4], the “Visual Growth Reduction (%)-14 Days after Application CHEAL” value is recorded as 100%, the “GR20 CHEAL” value is below 17.5 g ai/ha, the “GR50 CHEAL” value is reported as below 17.5 g ai/ha and the “GR80 CHEAL” value is below 17.5 g ai/ha. Further, the pest or weed control at 140 g/ha in data set [5] is 0%. Further, in data set [6], the “GR20 ZEAMX” value is listed as above 280 g ai/ha, the “GR50 ZEAMX” value was above 280 g ai/ha and the “GR80 ZEAMX” value is above 280 g ai/ha. Further, the pest or weed control at 140 g/ha in data set [6] (setting [9]) was determined as 0%. In addition, in data set [6] (setting [11]), the pest or weed control at 17.5 g/ha was 0%, the pest or weed control at 35 g/ha was found to be 0% and the pest or weed control at 70 g/ha turned out to be 0%. For the same compound, the pest or weed control at 140 g/ha in data set [6] (setting [12]) is 0%. Moreover, in data set [6] (Zea mays, post-emergence, 336 h, Table 4, 280 g ai/ha, read-out: Visual Growth Reduction (%)-14 Days after Application ZEAMX), the pest or weed control at 280 g/ha came to 0%. Also, the pest or weed control at 140 g/ha in data set [7] (setting [10]) was 100%. Also, in data set [7] (setting [13]), the pest or weed control at 17.5 g/ha stood at 80%, the pest or weed control at 35 g/ha is 85% and the pest or weed control at 70 g/ha is 95%. Moreover, in data set [7] (setting [14]), the pest or weed control at 140 g/ha came to 100%. Further, the pest or weed control at 280 g/ha in data set [7] (Abutilon theophrasti, post-emergence, 336 h, Table 4, 280 g ai/ha, read-out: Visual Growth Reduction (%)-14 Days after Application ABUTH) was 100%. In addition, in data set [7], the “GR20 ABUTH” value is listed as below 17.5 g ai/ha, the “GR50 ABUTH” value was below 17.5 g ai/ha and the “GR80 ABUTH” value was 19.7 g ai/ha.

The values above are taken from patent publication US9518018B2, “3-alkoxy, thioalkyl and amino-4-amino-6-(substituted)picolinates and their use as herbicides” (Dow AgroSciences LLC, priority 2011, dated 2016).
